# US20160067211A1, “PHARMACEUTICAL COMPOSITION” (Eberhard Karls Universitaet Tuebingen Medizinische Fakultaet, priority 2013, published 2016)
# Test system: SK-MEL-28 melanoma cells
# Test: Real time cell monitoring assay (xCELLigence), SK-MEL-28
# Type: cell-based, human
# Conditions: SK-MEL-28, 20, 50 and 100 μM, 104 hours, vs. control
# Description: FIG. 5: real time cell monitoring of BLM and SK-MEL-28 melanoma cells treated with 6-PN and 8-PN. (A) BML and SK-MEL-28 cells were treated 24 hours after seeding with different concentrations of 6-PN and 8-PN (20 μM, 50 μM and 100 μM) over a 104 hour time period. The cellular impedance was measured over the entire observation time using the xCELLigence™ SP system and is depicted by the cell index (CI). All CI-values were normalized shortly before the treatment started. […] As a positive control, Triton X-100 0.1% was used to induce cell death. Shown are the mean±SD of three independent experiments, each performed in triplicates (B, C). […]
# The human melanoma cell lines BLM and SK-MEL-28 (2.5×10^3 cells/well) were seeded in 96 well plates. The cells were treated after 24 hours with different concentrations of 6-PN or 8-PN (20 μM, 50 μM and 100 μM) and monitored by measurements of electrical impedance in 15 minutes intervals for an overall time span of in total 104 hours using the xCELLigencer® SP Systems (Roche Applied Science). The cell index values were calculated using the RTCA software (1.0.0.0805). […]
# The human metastatic melanoma cell lines BLM and SK-MEL-28 were treated once with rising concentrations of 6-PN or 8-PN (20 μM, 50 μM and 100 μM) and monitored continuously for an overall time span of 104 hours using a real time monitoring assay (FIG. 5A). […]
smiles,measurement,value
"CC(C)=CCc1c(O)cc(O)c2c1OC(c1ccc(O)cc1)CC2=O (stereo not shown) [8-PN, 5,7-Dihydroxy-2-(4-hydroxy-phenyl)-8-(3-methyl-but-2-enyl)-chroman-4-one]",normalized cell index (CI),descended over time
